Data published in paper PMC5786788, “Antimicrobial Octapeptin C4 Analogues Active against Cryptococcus Species” (Antimicrobial Agents and Chemotherapy, 2018).
Values after ≈ are worked out from the molar mass of the structure shown. Where two headings read alike, the source gives them in different places.

Assays:
[1] = test system: C. neoformans var. gattii; test: microbe, parasite or virus in culture
Description: (§1) The MICs of the yeast strains for PMB, PME, and octapeptin C4 and its derivatives were determined in accordance with CLSI M27-A2 guidelines using YNB (Becton Dickinson, USA) medium supplemented with 10 mM ammonium sulfate and 2% glucose, a final inoculum concentration of 1.5 × 10^3 to 2.0 × 10^3 cells/ml, and incubation at 35°C for 72 h ([39]). […] The MICs for PMB, PME, and octapeptin C4 for A. fumigatus were determined in accordance with the CLSI M38-A2 guidelines ([40]) using synthetic RPMI 1640 medium (with glutamine, without bicarbonate and with phenol red; Life Technologies, USA). The final inoculum concentration was 0.4 × 10^4 to 5 × 10^4 cells/ml, with incubation at 35°C for 48 h. […] All assays were completed in triplicate. Fluconazole was used as a positive control where the MIC was determined at both 50% growth (in accordance with CLSI M27-A2 guidelines) and when there was a “no visible growth” reading.

[2] = test system: C. neoformans var. neoformans; test: microbe, parasite or virus in culture; conditions: Cryptococcus neoformans
Description: as §1

**Q.** With `OC(Cn1cncn1)(Cn1cncn1)c1ccc(F)cc1F` [Fluconazole, fluconazole] as the molecule, how does the MIC ([1]; Cryptococcus neoformans, ATCC34882, strain ATCC 34882, no visible growth) read?
**A.** 6.25 µg/mL (≈ 20.4 µM)

**Q.** And the MIC ([1]; Cryptococcus neoformans, read-out: MIC-2, strain 93/980 (CSF France), 50% fungal growth)?
**A.** 1.56 µg/mL (≈ 5.09 µM)

**Q.** And the MIC ([1]; Cryptococcus neoformans, read-out: MIC-2, strain B5742 (VGIV CSF India), 50% fungal growth)?
**A.** 3.13 µg/mL (≈ 10.2 µM)

**Q.** And the MIC ([1]; Cryptococcus neoformans, read-out: MIC-2, strain R266 (Vancouver Island), 50% fungal growth)?
**A.** 6.25 µg/mL (≈ 20.4 µM)

**Q.** What about the MIC ([1]; Cryptococcus neoformans, read-out: MIC-2, strain R267 (Vancouver Island), 50% fungal growth) of the same molecule?
**A.** 25 µg/mL (≈ 81.6 µM)

**Q.** What about the MIC ([1]; Cryptococcus neoformans, read-out: MIC-2, strain R268 (Vancouver Island), 50% fungal growth) of the same molecule?
**A.** 0.78 µg/mL (≈ 2.55 µM)

**Q.** And the MIC ([1]; Cryptococcus neoformans, read-out: MIC-2, strain R269 (Vancouver Island), 50% fungal growth)?
**A.** 3.13 µg/mL (≈ 10.2 µM)

**Q.** What about the MIC ([1]; Cryptococcus neoformans, read-out: MIC-2, strain R270 (Vancouver Island), 50% fungal growth) of the same molecule?
**A.** 3.13 µg/mL (≈ 10.2 µM)

**Q.** What about the MIC ([1]; Cryptococcus neoformans, strain R266 (Vancouver Island), no visible growth) of the same molecule?
**A.** 12.5 µg/mL (≈ 40.8 µM)

**Q.** And the MIC ([1]; Cryptococcus neoformans, strain R267 (Vancouver Island), no visible growth)?
**A.** < 25 µg/mL

**Q.** And the MIC ([1]; Cryptococcus neoformans, strain R268 (Vancouver Island), no visible growth)?
**A.** 1.56 µg/mL (≈ 5.09 µM)

**Q.** And the MIC ([1]; Cryptococcus neoformans, strain R269 (Vancouver Island), no visible growth)?
**A.** 12.5 µg/mL (≈ 40.8 µM)

**Q.** And the MIC ([1]; Cryptococcus neoformans, strain R270 (Vancouver Island), no visible growth)?
**A.** 6.25 µg/mL (≈ 20.4 µM)

**Q.** What about the MIC ([1]; read-out: MIC-2, strain 96/1120-1 (Brain HIV2 France), 50% fungal growth) of the same molecule?
**A.** 3.13 µg/mL (≈ 10.2 µM)

**Q.** What about the MIC ([1]; read-out: MIC-2, strain 96/1120-2 (CSF HIV2 France), 50% fungal growth) of the same molecule?
**A.** 6.25 µg/mL (≈ 20.4 µM)

**Q.** What about the MIC ([1]; read-out: MIC-2, strain B5748 (VGIV HIV India), 50% fungal growth) of the same molecule?
**A.** 3.13 µg/mL (≈ 10.2 µM)

**Q.** What about the MIC ([1]; strain 96/1120-1 (Brain HIV2 France), no visible growth) of the same molecule?
**A.** 25 µg/mL (≈ 81.6 µM)

**Q.** And the MIC ([1]; strain 96/1120-2 (CSF HIV2 France), no visible growth)?
**A.** 25 µg/mL (≈ 81.6 µM)

**Q.** What about the MIC ([1]; strain B5748 (VGIV HIV India), no visible growth) of the same molecule?
**A.** 12.5 µg/mL (≈ 40.8 µM)

**Q.** And the MIC ([2]; read-out: MIC-2, strain WM 01.127 (USA), 50% fungal growth)?
**A.** 6.25 µg/mL (≈ 20.4 µM)

**Q.** And the MIC ([2]; read-out: MIC-2, strain WM 02.141 (Russia), 50% fungal growth)?
**A.** 3.13 µg/mL (≈ 10.2 µM)

**Q.** What about the MIC ([2]; read-out: MIC-2, strain WM 02.142 (Russia), 50% fungal growth) of the same molecule?
**A.** 6.25 µg/mL (≈ 20.4 µM)

**Q.** What about the MIC ([2]; read-out: MIC-2, strain WM 02.143 (Russia), 50% fungal growth) of the same molecule?
**A.** 6.25 µg/mL (≈ 20.4 µM)

**Q.** What about the MIC ([2]; read-out: MIC-2, strain WM 02.37 (Canada), 50% fungal growth) of the same molecule?
**A.** 6.25 µg/mL (≈ 20.4 µM)

**Q.** And the MIC ([2]; read-out: MIC-2, strain WM 02.52 (Canada), 50% fungal growth)?
**A.** 3.13 µg/mL (≈ 10.2 µM)

**Q.** And the MIC ([2]; read-out: MIC-2, strain WM 04.168 (Chile), 50% fungal growth)?
**A.** 6.25 µg/mL (≈ 20.4 µM)

**Q.** And the MIC ([2]; read-out: MIC-2, strain WM 04.171 (Thailand, environmental), 50% fungal growth)?
**A.** 6.25 µg/mL (≈ 20.4 µM)

**Q.** And the MIC ([2]; read-out: MIC-2, strain WM 05.467 (Brazil, environmental), 50% fungal growth)?
**A.** 6.25 µg/mL (≈ 20.4 µM)

**Q.** What about the MIC ([2]; read-out: MIC-2, strain WM 05.515 (Peru), 50% fungal growth) of the same molecule?
**A.** 1.56 µg/mL (≈ 5.09 µM)

**Q.** And the MIC ([2]; read-out: MIC-2, strain WM 09.109 (Italy, environmental), 50% fungal growth)?
**A.** 3.13 µg/mL (≈ 10.2 µM)

**Q.** And the MIC ([2]; read-out: MIC-2, strain WM 09.112 (USA), 50% fungal growth)?
**A.** 3.13 µg/mL (≈ 10.2 µM)

**Q.** And the MIC ([2]; read-out: MIC-2, strain WM 10.119 (Australia), 50% fungal growth)?
**A.** 3.13 µg/mL (≈ 10.2 µM)

**Q.** And the MIC ([2]; read-out: MIC-2, strain WM 629 (Australia), 50% fungal growth)?
**A.** 3.13 µg/mL (≈ 10.2 µM)

**Q.** And the MIC ([2]; read-out: MIC-2, strain WM 1706 (Argentina), 50% fungal growth)?
**A.** 6.25 µg/mL (≈ 20.4 µM)

**Q.** What about the MIC ([2]; read-out: MIC-2, strain WM 1740 (Chile), 50% fungal growth) of the same molecule?
**A.** 3.13 µg/mL (≈ 10.2 µM)

**Q.** And the MIC ([2]; read-out: MIC-2, strain WM 2207 (USA, environmental), 50% fungal growth)?
**A.** 12.5 µg/mL (≈ 40.8 µM)

**Q.** And the MIC ([2]; read-out: MIC-2, strain WM 2242 (USA), 50% fungal growth)?
**A.** 1.56 µg/mL (≈ 5.09 µM)

**Q.** And the MIC ([2]; read-out: MIC-2, strain WM 2530 (USA), 50% fungal growth)?
**A.** 3.13 µg/mL (≈ 10.2 µM)

**Q.** And the MIC ([2]; strain WM 01.127 (USA), no visible growth)?
**A.** 12.5 µg/mL (≈ 40.8 µM)

**Q.** And the MIC ([2]; strain WM 02.141 (Russia), no visible growth)?
**A.** 6.25 µg/mL (≈ 20.4 µM)

**Q.** And the MIC ([2]; strain WM 02.142 (Russia), no visible growth)?
**A.** 12.5 µg/mL (≈ 40.8 µM)

**Q.** What about the MIC ([2]; strain WM 02.143 (Russia), no visible growth) of the same molecule?
**A.** 12.5 µg/mL (≈ 40.8 µM)

**Q.** What about the MIC ([2]; strain WM 02.37 (Canada), no visible growth) of the same molecule?
**A.** 25 µg/mL (≈ 81.6 µM)

**Q.** What about the MIC ([2]; strain WM 02.52 (Canada), no visible growth) of the same molecule?
**A.** 6.25 µg/mL (≈ 20.4 µM)

**Q.** What about the MIC ([2]; strain WM 04.168 (Chile), no visible growth) of the same molecule?
**A.** 12.5 µg/mL (≈ 40.8 µM)

**Q.** And the MIC ([2]; strain WM 04.171 (Thailand, environmental), no visible growth)?
**A.** 6.25 µg/mL (≈ 20.4 µM)

**Q.** And the MIC ([2]; strain WM 05.467 (Brazil, environmental), no visible growth)?
**A.** 12.5 µg/mL (≈ 40.8 µM)

**Q.** And the MIC ([2]; strain WM 05.515 (Peru), no visible growth)?
**A.** 6.25 µg/mL (≈ 20.4 µM)

**Q.** And the MIC ([2]; strain WM 09.109 (Italy, environmental), no visible growth)?
**A.** 6.25 µg/mL (≈ 20.4 µM)

**Q.** And the MIC ([2]; strain WM 09.112 (USA), no visible growth)?
**A.** 12.5 µg/mL (≈ 40.8 µM)

**Q.** And the MIC ([2]; strain WM 10.119 (Australia), no visible growth)?
**A.** 6.25 µg/mL (≈ 20.4 µM)

**Q.** And the MIC ([2]; strain WM 629 (Australia), no visible growth)?
**A.** 6.25 µg/mL (≈ 20.4 µM)

**Q.** What about the MIC ([2]; strain WM 1706 (Argentina), no visible growth) of the same molecule?
**A.** 12.5 µg/mL (≈ 40.8 µM)

**Q.** And the MIC ([2]; strain WM 1740 (Chile), no visible growth)?
**A.** 6.25 µg/mL (≈ 20.4 µM)

**Q.** What about the MIC ([2]; strain WM 2207 (USA, environmental), no visible growth) of the same molecule?
**A.** 25 µg/mL (≈ 81.6 µM)

**Q.** And the MIC ([2]; strain WM 2242 (USA), no visible growth)?
**A.** 3.13 µg/mL (≈ 10.2 µM)

**Q.** And the MIC ([2]; strain WM 2530 (USA), no visible growth)?
**A.** 6.25 µg/mL (≈ 20.4 µM)
